Assays:
[1] = tested on: sciatic nerve; assay: Axonal regeneration into acellular interpositional nerve grafts (GAP-43 profiles); assay type: in vivo, rat
Source text: Preparation of acellular nerve grafts treated with chondroitinase: Adult (180-200 g) female SPRAGUE DAWLEY rats (HARLAN, Indianapolis, Ind.) were used as nerve donors and recipient hosts. Donor rats were anesthetized with halothane and decapitated. Sciatic nerves were exposed through a gluteal muscle-splitting incision and isolated free of underlying fascia. A 15-mm nerve segment was excised rostral to the bifurcation into common peroneal and tibial nerves. The segments were rinsed with cold sterile Ringer's solution, stabilized by pinning the ends to a thin plastic support, and transferred to a cryogenic vial. The vials were submerged in liquid nitrogen for 2 minutes and then transferred to a 37° C. water bath for 2 minutes. This freeze/thaw cycle was repeated, yielding acellular nerve grafts that were then stored in liquid nitrogen. On the day before grafting, the nerve grafts were warmed to room temperature and incubated in 100 μl phosphate buffered saline pH 7.4 (PBS) containing 2 units/ml chondroitinase ABC (SIGMA, St. Louis, Mo.) or in PBS (vehicle) only for 16 hours at 37° C. The grafts were rinsed twice with Ringer's and kept on ice prior to use. The chondroitinase ABC preparation was highly purified and stated by the manufacturer to be essentially free of protease activity.
Interpositional nerve grafting for chondroitinase experiments. Twelve rats received bilateral acellular nerve grafts, one chondroitinase-treated and one vehicle-treated graft. Host rats were deeply anesthetized using xylazine (15 mg/kg, i.m.) and ketamine (110 mg/kg, i.p.). The sciatic nerve was exposed and supported by a plastic insert placed between the nerve and underlying tissue. […]
The main grafts were sectioned serially on the transverse plane in recorded measure to assess the extent of axonal growth by microscopy. […] GAP-43-positive axon profiles were scored using IMAGE-PRO PLUS software (MEDIA CYBERNETICS, Silver Springs, Md.).
(§1) Immunocytochemistry. Axonal regeneration was assessed by GAP-43 immunofluorescence and digital image analysis. […]

[2] = tested on: sciatic nerve; assay: Axonal regeneration after bilateral sciatic nerve crush injury (axonotmesis); assay type: in vivo, rat; conditions: 1 U in 2 μl; 2 days after injury; 6 nerves per condition
Method: Surgical procedures for nerve transection and nerve crush experiments. All surgical procedures were performed according to Institutional Animal Care and Use Committee (IACUC) approved protocols. Young adult SPRAGUE DAWLEY rats (HARLAN Indianapolis, Ind.) were deeply anesthetized with xylazine (15 mg/kg, i.m.) followed by ketamine-HCl (110 mg/kg, i.p.). Six animals received bilateral nerve crush injuries. Sciatic nerves were exposed and then crushed with firm pressure for thirty seconds with a DUMONT #5 forceps at a site 4 mm distal to the tendon of the internal obdurator. The crush site was marked with an epineurial suture. In a separate set of experiments, eight rats received bilateral sciatic nerve transection injuries using serrated scissors. The proximal and distal stumps were […] by epineurial neurorrhaphy using 9-0 ETHILON sutures. Fibrin glue (fibrinogen and thrombin) was then applied to stabilize the union. […]
as §1
The hypothesis that chondroitinase treatment improves axonal growth through the site of nerve crush injury was tested. […] Regenerating axons were labeled by GAP-43 immunofluorescence and scored by digital image analysis. […]

chondroitinase ABC was tested, and the “axonal penetration vs control at 0.3 mm from the host-graft interface” value ([1]; 4-day grafts, 3 animals) was “five-fold greater”, the “average number of axons (GAP-43-immunopositive profiles) entering grafts vs control grafts” value ([1]; 8-day grafts, 9 rats with bilateral grafts) was “more than three-fold greater” and the “propensity of axons to grow within basal laminae” value ([1]; 8-day grafts, GAP-43 and laminin double label) was “unaltered”. For the same substance, the “axonal regeneration after nerve crush injury (GAP-43 immunoreactivity) vs vehicle” value [2] was “not significantly effected”.

From patent US7732200B2, “Materials and methods for nerve grafting, selection of nerve grafts, and in vitro nerve tissue culture” (University of Florida Research Foundation, Inc., priority 2001, dated 2010)
